How the values were obtained:
[1] = target: T1, terminal deoxynucleotidyl transferase (TdT) (Bos taurus, UniProt P06526); assay: Incorporation of natural and non-natural nucleotides by TdT (polymerization assay, Michaelis-Menten kinetics); format: biochemical
Description: All enzymatic assays were performed as previously described. […] Reactions were quenched with 200 Mm EDTA at variable times (5-600 s) and analyzed using denaturing gel electrophoresis. Time courses in product formation were fitted using eq 1: Y=mt+b(1) (1)
where y is the amount of product, m is the rate of the reaction, t is time, and b is the Y-intercept. Km and Vmax values were determined by fits of the data points to the Michaelis-Menten equation: […]
where Vmax is the maximal rate of nucleotide incorporation, Km is the Michaelis constant for dNTP, and [dNTP] is the concentration of nucleotide substrate. The IC50 value for 3-Eth-5-NITP was obtained using a nonlinear regression curve fit of the data to eq 3:
The biological function of TdT is to expand immunological diversity by randomly incorporating dNTPs into single-stranded DNA during V(D)J recombination. […] TdT also utilizes nucleotide analogues including 2′,3′-dideoxynucleotides, dinucleoside 5′,5′-tetraphosphates, and intrinsically fluorescent nucleotide analogues. In this report, we tested if TdT also incorporates indolyl-2′-deoxyribose-5′-triphosphates that bear non-natural moieties such as ethynyl and nitro groups at the 3- and 5-position, respectively, of the indole base. […] Aliquots of the reaction were quenched with EDTA at variable time points, and the polymerization reactions were then subjected to denaturing polyacrylamide gel electrophoresis to separate extended primers from unreacted substrate.
Time courses in product formation were generated using pseudo-first order reaction conditions in which 6 units of TdT were incubated with 1.5 μM DNA substrate and mixed with variable concentrations of non-natural nucleotide (0.05-50 μM). Each time course was fit to an equation for a straight line to define the rate of nucleotide incorporation (data not shown).

[2] = target: T1, terminal deoxynucleotidyl transferase (TdT); assay: as above; format: biochemical; settings: reaction times of up to 20 min

T1 sequence (P06526 whole entry): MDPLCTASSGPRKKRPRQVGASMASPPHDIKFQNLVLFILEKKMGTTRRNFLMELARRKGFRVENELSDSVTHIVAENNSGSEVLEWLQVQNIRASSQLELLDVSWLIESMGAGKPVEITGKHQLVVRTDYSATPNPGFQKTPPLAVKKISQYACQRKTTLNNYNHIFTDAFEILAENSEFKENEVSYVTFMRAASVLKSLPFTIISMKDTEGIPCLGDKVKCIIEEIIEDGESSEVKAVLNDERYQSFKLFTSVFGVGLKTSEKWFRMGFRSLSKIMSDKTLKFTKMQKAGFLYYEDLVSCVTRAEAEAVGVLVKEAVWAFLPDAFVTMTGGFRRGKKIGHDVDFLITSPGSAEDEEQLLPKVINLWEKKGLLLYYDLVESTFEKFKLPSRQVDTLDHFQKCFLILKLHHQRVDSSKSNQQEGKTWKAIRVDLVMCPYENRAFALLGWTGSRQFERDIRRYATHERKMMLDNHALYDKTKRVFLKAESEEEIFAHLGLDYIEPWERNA

extension by TdT beyond the incorporated nucleotide ([1]; 100 μM nucleotide, 14-mer DNA, gel (FIG. 2B)): poorly extended
Vmax ([1]; incorporation by TdT, 6 units TdT, 1.5 μM single-stranded DNA substrate): 3.2 ± 0.1 nM/s
catalytic efficiency higher than that for 5-NITP ([1]; relative to 5-NITP): 7 fold
decrease in Vmax ([1]; relative to 5-NITP): 3.5 fold
extension by TdT beyond the incorporated nucleotide at longer reaction times [2]: not observed
SMILES: C#Cc1cn(C2CC(O)C(COP(=O)(O)OP(=O)(O)OP(=O)(O)O)O2)c2ccc([N+](=O)[O-])cc12 (stereo not drawn) [3-Eth-5-NITP, 3-ethynyl-5-nitroindolyl-2′-deoxyribose-5′-triphosphate]
utilization by TdT (elongation of 14-mer DNA substrate) ([1]; 100 μM nucleotide, 6 units TdT, 1.5 μM 14-mer (FIG. 2B)): utilized by TdT as efficiently as the natural purines
